SMILES strings stand for the structures. Where a name gives a salt, the structure may show the parent alone.

Data set [1] is described as follows: ABTS initial absorbance (A436) reduction rate (Test Example 3). The class given is physicochemical. As to conditions: for A436 reduction rate (%): in one minute at 25° C., 1 mM (single compound) or 0.011 g nitrogen element in 100 mL (composition), pH 8.5; for change of ABTS initial absorbance: reaction solution A, FIG. 2. The text has this:
In the present specification, the absorbance of a solution containing ABTS (ABTS solution), at a wavelength of 436 nm, is defined as an ABTS initial absorbance (A436). In the present specification, the ABTS initial absorbance (A436) reduction rate (%) of the activity improving agent is defined to be a reduction rate (%) of the absorbance of a mixed solution, which contains the above ABTS solution and the above activity improving agent, at a wavelength of 436 nm in one minute, with respect to the ABTS initial absorbance (A436) (100%). Note that the ABTS solution is a solution in which the concentration of ABTS is adjusted such that the absorbance (A436) at a wavelength of 436 nm is approximately 1.3 at an optical path length of 1.0 cm. The value “approximately 1.3” here is intended to mean a value in a range in which 1.3 is obtained by rounding the value to the first decimal place. Test Examples described later will explain specific methods for measuring the absorbance (A436) of the ABTS solution at a wavelength of 436 nm and the ABTS initial absorbance (A436) reduction rate (%) of the activity improving agent. ABTS is an abbreviation for 2,2′-azinobis(3-ethylbenzothiazoline-6-sulfonic acid).
In the present activity improving method, when the ABTS initial absorbance (A436) reduction rate (%) of the activity improving agent is measured, the concentration of the activity improving agent in the ABTS solution for measurement is set as follows: (a) the concentration is set to 1 mM, when the molecular weight of the activity improving agent is evident as in a case where the activity improving agent is made of a single compound; and (b) when the activity improving agent is a substance which is made of a composition having an inevident molecular weight, the content of nitrogen element is used as a reference and the concentration is set such that the content of nitrogen element derived from the activity improving agent is 0.011 g in 100 mL of the ABTS solution for measurement. Note that, in the above (b), the content of nitrogen element derived from the activity improving agent in the ABTS solution is a value calculated by the Kjeldahl method.
The following describes a specific evaluation method. ABTS employed was an ABTS manufactured by Roche Diagnostics K.K. Further, the ABTS was dissolved in a 50 mM glycine-KOH (pH 8.5) buffer so that the concentration of the ABTS became 2.0 mg/mL. An ABTS solution was thus prepared. The absorbance of the ABTS solution at a wavelength of 436 nm (ABTS initial absorbance (A436)) was measured at an optical path length of 1.0 cm, by using a molecular absorption spectrometer Spectra Max Plus 384 (manufactured by Molecular Devices Japan K.K.). As a result the absorbance was approximately 1.3. Next, 5 μL of an activity improving agent solution or a comparative substance solution was added to 195 μL of the ABTS solution, so that a reaction solution for evaluating ABTS (hereinafter, also referred to as “reaction solution A”) was prepared. […]

The target in data set [2] is T1, recombinant BOD (bilirubin oxidase) derived from Myrothecium verrucaria MT-1 (Albifimbria verrucaria, UniProt Q12737).
T1 construct: made in house; host or cells: Aspergillus sp
T1 sequence (Q12737 39-572): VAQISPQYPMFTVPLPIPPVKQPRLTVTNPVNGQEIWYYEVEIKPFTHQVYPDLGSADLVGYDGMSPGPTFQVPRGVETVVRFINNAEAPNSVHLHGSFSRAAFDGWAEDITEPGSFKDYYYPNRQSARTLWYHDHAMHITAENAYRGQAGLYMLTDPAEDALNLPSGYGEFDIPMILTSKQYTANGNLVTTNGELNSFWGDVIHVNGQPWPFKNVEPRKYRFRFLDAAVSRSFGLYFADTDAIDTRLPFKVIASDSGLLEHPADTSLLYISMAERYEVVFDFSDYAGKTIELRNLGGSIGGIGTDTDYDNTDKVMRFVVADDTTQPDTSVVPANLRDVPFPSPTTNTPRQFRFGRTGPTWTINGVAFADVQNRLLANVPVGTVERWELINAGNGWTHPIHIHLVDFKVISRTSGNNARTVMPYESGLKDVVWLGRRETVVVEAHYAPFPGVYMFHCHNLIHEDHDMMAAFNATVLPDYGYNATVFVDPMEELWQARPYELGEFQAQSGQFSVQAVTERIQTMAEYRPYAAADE
The data set is described as follows: BOD activity after leaving the BOD solution with an activity improving agent or comparative substance at 30° C. in a deoxygenated atmosphere (Test Example 1). The data set is classed as biochemical. As to conditions: for Activity (%) Day 47: left 47 days at 30° C.; for Activity (%) Day 47 / Activity (%) Day 14: relative to Day 0, additive concentration as in Table 1; for Activity (%) Day 0: 30° C., additive concentration as in Table 1; for Activity (%) Day 14: left 14 days at 30° C. The procedure: A BOD solution, which contains: a BOD; and the present activity improving agent or a comparative substance, was left in an environment at a temperature of 30° C. in a deoxygenated atmosphere for a certain period of time. After the BOD solution was left as above, improvement of the BOD activity by the present activity improving method was evaluated by measurement of the BOD activity.
In Test Example 1, a BOD gene derived from a Myrothecium verrucaria MT-1 (GenBank accession number: D12579.1) was introduced into an Aspergillus sp., and then a recombinant BOD (hereinafter, also referred to simply as “BOD”) expressed in the Aspergillus sp. was purified by using a well-known technique and then used as the BOD. The BOD gene derived from the Myrothecium verrucaria MT-1 was codon-optimized in accordance with a gene sequence of the Aspergillus sp., and then introduced into the Aspergillus sp. Further, the BOD thus purified was dissolved in a 50 mM glycine-KOH (pH 8.5) buffer so that the concentration of the BOD became 1.0 mg/mL. Then, a resultant solution was used as a BOD enzyme solution.
The enzymatic activity of the BOD was measured as follows. To 1780 μL of a 50 mM potassium phosphate buffer (pH 6.5), 200 μL of a 20 mM ABTS substrate solution was added, so that a mixed solution (1980 μL) was prepared. This mixed solution was incubated for 1 min at 37° C. Thereafter, 20 μL of a solution containing the BOD (specifically, a BOD solution for evaluation, which will be described later) was added to the mixed solution, and a resultant mixed solution (2 mL) was incubated at 37° C. While the mixed solution was incubated, the absorbance of the mixed solution at a wavelength of 436 nm was measured immediately after that addition of the BOD solution for evaluation (at 0 seconds) and thereafter every 20 seconds. On the basis of (i) the absorbance of the mixed solution at a wavelength of 436 nm immediately after the addition of the BOD solution for evaluation and (ii) the absorbance of the mixed solution at a wavelength of 436 nm after a lapse of 1 minute from the addition of the BOD solution for evaluation, calculation was carried out for obtaining an increase rate per minute of the absorbance of the mixed solution at a wavelength of 436 nm after the addition of the BOD solution for evaluation. The BOD activity (unit) in the BOD solution for evaluation was calculated from the increase rate. In the present specification, the amount of enzyme for oxidizing 1 μmol of ABTS per minute was defined as one unit.
A specific test method of Test Example 1 is as follows. To a BOD enzyme solution containing a BOD, one of the above-described present activity improving agents was added, so that a BOD solution (which is the BOD solution according to an embodiment of the present invention) was prepared. Further, one of the above-described comparative substances was added to the BOD enzyme solution, so that another BOD solution was prepared. In addition, still another BOD solution was prepared by adding, to the BOD enzyme solution, distilled water in place of the activity improving agent or the comparative substance, so that a control (denoted as Without additive in Tables 1 to 3) was prepared. The final concentration of the activity improving agent or the comparative substance in each of the above BOD solutions was shown in “mM” or “percentage (%)” (amount (g) of the activity improving agent or the comparative substance relative to 100 mL of the BOD solution) in Table 1.
Thereafter, one of these BOD solutions and a deoxygenating agent (Anaero Pack manufactured by Mitsubishi Gas Chemical Company, Inc.) were included in one container. Then, the container was sealed, so that a BOD container was prepared. The BOD container was left in an environment at a temperature of 30° C. in a deoxygenated atmosphere for 47 days (Table 2) or 14 days (Table 3). […]

[3] abbreviates: Day 0 (start of leaving, set to 100%) of the 14-day test.
The mark [4] stands for this setting: Day 0 (start of leaving, set to 100%).

With `O[C@H](CS)[C@H](O)CS` (racemic) [DTT, dithiothreitol, reference compound], the “A436 reduction rate (%)” value in data set [1] stood at 87.81%. Moreover, in data set [2], the “Activity (%) Day 47” value is 0%.
Consider `N.N.O=S(=O)(O)O` [Ammonium sulfate, ammonium sulfate, reference compound], for which, in data set [1], the “A436 reduction rate (%)” value came to 0.00% and the “change of ABTS initial absorbance” value was “does not change”. In data set [2] (setting [3]), the “Activity (%) Day 0” value amounted to 100%. In addition, in data set [2], the “Activity (%) Day 14” value is 65%.
Consider `N.O=C(O)CS` [Ammonium thioglycolate, ammonium thioglycolate, reference compound], for which the “A436 reduction rate (%)” value in data set [1] was 87.81%. Moreover, in data set [2] (setting [4]), the “Activity (%) Day 0” value is 100%. Besides, the “Activity (%) Day 47” value in data set [2] is recorded as 0%.
On to `NCCS` [Cysteamine hydrochloride, cysteamine hydrochloride, reference compound], for which the “A436 reduction rate (%)” value in data set [1] amounted to 87.81%. Further, in data set [2], the “Activity (%) Day 47” value worked out at 1%.
For `O=C(CS)OCC(O)CO` (stereo not shown) [GMT, glyceryl monothioglycolate, reference compound], in data set [1], the “A436 reduction rate (%)” value worked out at 87.81%. In data set [2], the “Activity (%) Day 47” value was found to be 1%.
Take `N[C@@H](CCC(=O)N[C@@H](CS)C(=O)NCC(=O)O)C(=O)O` [Glutathione (reduced form), glutathione (reduced form)]: in data set [1], the “A436 reduction rate (%)” value amounted to 87.81%. The “Activity (%) Day 0” value in data set [2] (setting [4]) worked out at 100%. Besides, the “Activity (%) Day 47” value in data set [2] is on record as 113%.
In the case of `O=CC(=O)O` [Glyoxylic acid, glyoxylic acid], the “A436 reduction rate (%)” value in data set [1] was 0.33%. Further, in data set [2], the “Activity (%) Day 14” value is on record as 194%.
For the compound `Cl.N[C@@H](CS)C(=O)O` [L-cysteine hydrochloride], the “A436 reduction rate (%)” value in data set [1] stood at 87.81%. The “Activity (%) Day 47” value in data set [2] is 130%.
For `CC(=O)N[C@@H](CS)C(=O)O` [N-acetyl-L-cysteine], in that order: 87.81% and 122%.
Take `O=S([O-])[O-].[Na+].[Na+]` [Sodium sulfite, sodium sulfite]: the “A436 reduction rate (%)” value in data set [1] was determined as 87.81%. Also, in data set [2] (setting [4]), the “Activity (%) Day 0” value turned out to be 100%. Besides, in data set [2], the “Activity (%) Day 47” value is 162%.
Turning to `Cc1c(C)c2c(c(C)c1O)CCC(C)(C(=O)O)O2` (stereo not shown) [Trolox], the “A436 reduction rate (%)” value in data set [1] is reported as 83.90%. The “Activity (%) Day 47” value in data set [2] is given as 251%.
`NC(N)=O` [Urea, urea, reference compound]: in data set [1], the “A436 reduction rate (%)” value is 0.00% and the “change of ABTS initial absorbance” value is “does not change”. Also, the “Activity (%) Day 0” value in data set [2] (setting [3]) was 100%. Besides, the “Activity (%) Day 14” value in data set [2] amounted to 56%.

The values above are taken from patent publication US20220017877A1, “BILIRUBIN OXIDASE ACTIVITY IMPROVING METHOD, AND BILIRUBIN OXIDASE PRODUCT” (OZEKI CORPORATION, priority 2018, published 2022).
